Assay results reported in US9555086B2, “Compositions and methods for inducing an immune response” (The Regents of the University of Michigan, priority 2010, dated 2017).

Columns and labels:
Th17 cells = assay: Expansion of pathogen-specific Th17 cells in immunized CII-TCR Tg mice; format: in vivo
CD4+IL17A+ T cells = assay: Th17 differentiation and IL-17 production in DC/CD4+ T cell co-culture; format: cell-based, mouse; details: peptide-stimulated DCs; naïve T cells, Th17-polarizing cocktail, 6 days
Protocol: DBA/1 bone marrow-derived CD11c+DCs were cultured overnight in the presence or absence of (A) ISL 65-79*0401 or ISL-negative control 65-79*0402, or (B) ISL-positive T-DRB1*0401 tetramers, versus ISL-negative T-DRB1*0301, or T-DRB1*1501 tetramers. Syngeneic splenic CD4+CD25−CD62L+CD44− naïve T cells plus a Th17-differentiation cytokine/antibody cocktail were then added to the culture and incubated for 6 days. Intracellular IL17A was determined by flow cytometry. On the left: a representative experiment, one of three repetitions, showing percentages of CD4+IL17A+ cells as dot plots. On the right: bar graphs show results presented as mean percentage±SD of replicate samples.
(A) DBA/1 bone marrow-derived CD11c+ DCs were cultured overnight with different peptidic ligands as above. Syngeneic splenic CD4+ T cells plus a Th17-polarizing cocktail were added to the culture and incubated for 6 days. IL-17A-positive cells were quantified by flow cytometry. On the left: dot plots showing percentage of CD4+IL17A+ T cells. […]
After 6 days, cells were stimulated with PMA (5 ng/ml) and ionomycin (500 ng/ml) for the last 6 hrs of culture. […] Mean florescence intensity and percentages of stained cells were determined by flow cytometry.

trypsin and chymotrypsin = assay: Trypsin/chymotrypsin stability assay; details: after 30 minutes, 37° C., pH 8
CD4+CD25+Foxp3+ Treg = assay: Treg differentiation in DC/CD4+ T cell co-culture; format: cell-based, mouse; details: 50 μg/ml peptide; for Treg differentiation (CD4+CD25+Foxp3+ abundance): DCs co-cultured with naïve CD4+CD25−CD62L+CD44− T cells, 5 days
Protocol: (A) DBA/1 bone marrow-derived CD11c+DCs were cultured overnight with 50 μg/ml SL ligand 65-79*0401 or ISL-negative control 65-79*0402, or medium. Syngeneic splenic CD4+ T cells were then added to the culture, and incubated with anti-CD3 and TGF-β for 5 days. On the left, flow cytometry dot plots showing percentages of CD25+Foxp3+ cells obtained from gated CD4+ T cells in each treatment. Each plot is representative of three experiments. On the right, bar graphs present results as mean percentage±SD of replicate samples. (B) Cultures were performed as in (A), with the exception that CD4+CD25− CD62L+CD44− naïve T cells, instead of CD4+ T cells were added to the CD11c+DCs. (C) DBA/1 bone marrow-derived CD11c+DCs were incubated overnight with 2 μg/ml tetramers (ISL-positive T-DRB1*0401, versus ISL-negative T-DRB1*0301, or T-DRB1*1501). Syngeneic CD4+CD25−CD62L+CD44− naïve T cells, anti-CD3 and TGF-β were then added to the culture and incubated for 5 days and analyzed as above.
DBA/1 bone marrow-derived CD11c+DCs were placed in 24-well plates (BD Biosciences, San Jose, Calif.) at a density of 2.5×10^5 cells per well and cultured overnight with or without 50 μg/ml of peptidic (65-79*0401 or 65-79*0402), or 2 μg/ml of tetrameric (T-DR1*0401, T-DR1*0301, or T-DR1*1501) ligands at 37° C. On the following day, 5.0×10^5 CD4+ T cells or CD4+CD25−CD62L+CD44− naïve T cells, isolated as described above, were added to each well in addition to anti-CD3 antibodies (5 μg/ml) and rhTGFβ (2.5 ng/ml).
After 5 days in culture, cells were harvested and stained for flow cytometric analysis using FITC anti-mouse CD4 (clone […]), PE anti-mouse CD25 (clone PC61) and isotype controls (Biolegend, San Diego, Calif.). […] After permeabilization, cells were stained using an APC-conjugated anti-mouse Foxp3 antibody (clone FLK-16S from e-Bioscience, San Diego, Calif.) and analyzed by FACScalibur flow cytometer using the CELLQuest™ software (Becton Dickinson, Franklin Lakes, N.J.).

Substance: H-KDLLEQKRAAVDTYC-NH2 [65-79*0401]
- total antigen non-stimulated Th17 cells in draining lymph nodes (Th17 cells; 100 μg i.p. days 0, 7, 14, 21, day 42): significant increase
- percentage of Th17 cells after 6 days in culture (Th17 cells; lymph node cells re-stimulated with bacterial antigen PPD): 13.1±0.5%
- percentage of Th17 cells after 6 days in culture (Th17 cells; lymph node cells stimulated with CII): 8.4±0.5%
- percentage of Th17 cells after 6 days in culture (Th17 cells; lymph node cells, without any antigen stimulation): 5.4±0.4%
- differentiation of CD4+IL17A+ T cells (CD4+IL17A+ T cells): significant increase
- degradation by trypsin/chymotrypsin (HPLC) (trypsin and chymotrypsin): degraded completely
- Treg expansion (CD4+CD25+Foxp3+ abundance) (CD4+CD25+Foxp3+ Treg; DCs co-cultured with CD4+ T cells, TGF-β, anti-CD3, 5 days): significantly inhibited
- Treg differentiation (CD4+CD25+Foxp3+ abundance) (CD4+CD25+Foxp3+ Treg): significantly inhibited
- Treg differentiation (CD4+CD25+Foxp3+ abundance) (CD4+CD25+Foxp3+ Treg; listed as 65-79*040): statistically significant, yet modest
